Drawing on US20260274853A1, “BIFUNCTIONAL COMPOUNDS CONTAINING PYRIMIDINE DERIVATIVES FOR DEGRADING CYCLIN-DEPENDENT KINASE 2 VIA UBIQUITIN PROTEASOME PATHWAY” (NIKANG THERAPEUTICS, INC., priority 2022, published 2026), this text covers IC50 and DC50 for twelve compounds.

Test [1] deals with T1, CDK2 (Homo sapiens, UniProt P24941).
T1 construct: High-Throughput Measurement of Cellular Endogenous CDK2; endogenous in cells; host or cells: OVCAR3
The test can be described thus: Inhibition of CDK2: phospho-Rb (S807/811) HTRF measurement in OVCAR3 cells. The class given is cell-based. Conditions: 24 h compound treatment, read-out: pRb (nM), IC50 in pRB(S807/811) assay. How it is done:
Phosphorylation of RB protein at S807/811 were measured using HTRF phospho-RB cellular kits (Cat #64RBS807PEG) from Cisbio.
On Day 1, OVCAR3 (dependent on CDK2) cells were seeded into 96-well tissue-culture treated plates at 20,000 cells/well in 200 μL and incubated overnight at 37° C. in CO2 atmosphere. On Day 2, the cells were treated with test compounds at concentrations from 0.3 to 10,000 nM using HP D300 digital dispenser. Twenty-four hours after compound treatment, cell culture media was removed by flicking the plate and tapping the plate against clean paper towel. Immediately 30 μL 1× lysis buffer was supplemented from the kit and the plate was incubated at room temperature on shaker for 30 min. After homogenization by pipetting up and down, 8 μL cell lysate from 96-well cell culture plate was transferred to 384-well small volume white detection plate. 2 μL premixed detection solution was added and the plate was covered with sealer. To prepare the detection solution, d2 conjugated-phospho-RB antibody and Eu-cryptate conjugated phosphor-RB antibody were diluted into detection buffer following manufacturer's instruction. Detection plates were incubated for 4 h at room temperature and read on ClarioStar (BMG Labtech) in TR-FRET mode (665 nM and 620 nM). The TR-FRET ratio (665 nM/620 nM) was plotted against the compound concentration and normalized to DMSO controls. Half maximal inhibition concentration (IC50) values are calculated with a four-parameter logistic fit using GraphPad Prism (version 8; La Jolla, CA).
In the table below, A indicates a IC50 of less than 0.1 μM; B indicates a IC50 of greater than or equal to 0.1 μM but less than 0.5 μM; C indicates a IC50 of greater than or equal to 0.5 μM but less than 1 μM; and D indicates a […] of greater than or equal to 1 μM but less than 10 μM.

Test [2] concerns the target T1, CDK2. The test can be described thus: CDK2 HTRF assay: cellular endogenous CDK2 level in OVCAR3 cells. It counts as cell-based. Conditions: 24 hours compound treatment, read-out: DC50 (half maximal degradation concentration of CDK2). How it is done: Effects of compounds on cellular CDK2 level can be monitored by a high-throughput HTRF assay or traditional Western Blot assay.
To determine half maximal degradation concentration (DC50) values of compounds, cellular CDK2 level was measured in 96-well format using HTRF total CDK2 cellular kit (Cat #64CDK2TPEG) from Cisbio.
On Day 1, OVCAR3 cells were seeded into 96-well tissue-culture treated plates at 20,000 cells/well in 200 μL and incubated overnight at 37° C. in CO2 atmosphere. On Day 2 cells were treated with compounds at concentration ranging from 0.3 to 10,000 nM using HP D300 digital dispenser. 24 hours after compound treatment, cell culture media was removed by flicking the plate and tapping the plate against clean paper towel. Immediately 30 μL 1× lysis buffer was supplemented from the kit and the plate was incubated at room temperature on shaker for 30 min. After homogenization by pipetting up and down, 8 μL cell lysate from 96-well cell culture plate was transferred to 384-well small volume white detection plate. 2 μL premixed detection solution was added and the plate was covered with sealer. To prepare the detection solution, d2 conjugated-CDK2 antibody and Eu-cryptate conjugated CDK2 antibody were diluted into detection buffer following manufacturer's instruction. Detection plates were incubated overnight at room temperature and read on ClarioStar (BMG Labtech) in TR-FRET mode (665 nM and 620 nM). The TR-FRET ratio (665 nM/620 nM) was plotted against the compound concentration and normalized to DMSO controls. Half maximal degradation concentration (DC50) values were calculated with a four-parameter logistic fit using GraphPad Prism (version 8; La Jolla, CA).
In the table below, A indicates a DC50 of less than 0.1 μM; B indicates a DC50 of greater than or equal to 0.1 μM but less than 0.5 μM; C indicates a DC50 of greater than or equal to 0.5 μM but less than 1 μM; and D indicates a DC50 of greater than or equal to 1 μM but less than 10 μM.
(In general: TR-FRET usually uses a lanthanide donor and a delayed reading to cut background.)

Where only a bound is given, the exact number is not on record here.

As to `Cn1nc(N2CCC(=O)NC2=O)c2ccc(N3CCN(CC4CCN(S(=O)(=O)N5CCC(Nc6ncc(C(F)(F)F)c(-c7cnn(CC(F)(F)F)c7)n6)CC5)CC4)CC3)cc21` [Example 86, 1-(1-methyl-6-(4-((1-((4-((4-(1-(2,2,2-trifluoroethyl)-1H-pyrazol-4-yl)-5-(trifluoromethyl)pyrimidin-2-yl)-amino)piperidin-1-yl)sulfonyl)-piperidin-4-yl)methyl)piperazin-1-yl)-1H-indazol-3-yl)dihydropyrimidine-2,4(1H,3H)-dione], the IC50 in test [1] is less than 100 nM. Besides, in test [2], the DC50 is less than 100 nM.

Turning to `O=C1CCC(c2ccc(N3CCN(Cc4cccc(S(=O)(=O)N5CCC(Nc6ncc(C(F)(F)F)c(-c7cnn(CC(F)(F)F)c7)n6)[C@H](F)C5)c4)CC3)cc2)C(=O)N1` (mixture of isomers) [Example 19, Rac-3-(4-(4-(3-(((3R,4S)-3-fluoro-4-((4-(1-(2,2,2-trifluoroethyl)-1H-pyrazol-4-yl)-5-(trifluoromethyl)pyrimidin-2-yl)-amino)piperidin-1-yl)sulfonyl)benzyl)-piperazin-1-yl)-phenyl)piperidine-2,6-dione], the IC50 in test [1] was less than 100 nM. In test [2], the DC50 is less than 100 nM.

With `Cn1nc(N2CCC(=O)NC2=O)c2ccc(N3CCN(CC4CCN(c5cccc(S(=O)(=O)N6CCC(Nc7ncc(C(F)(F)F)c(-c8cnn(CC(F)(F)F)c8)n7)CC6)c5)CC4)CC3)cc21` [Example 67, 1-(1-methyl-6-(4-((1-(3-((4-((4-(1-(2,2,2-trifluoroethyl)-1H-pyrazol-4-yl)-5-(trifluoromethyl)pyrimidin-2-yl)amino)-piperidin-1-yl)sulfonyl)phenyl)piperidin-4-yl)methyl)-piperazin-1-yl)-1H-indazol-3-yl)-dihydropyrimidine-2,4(1H,3H)-dione], in test [1], the IC50 was less than 100 nM. Besides, the DC50 in test [2] is less than 100 nM.

On to `O=C1CCC(N2Cc3cc(N4CCC5(CCN(Cc6cccc(S(=O)(=O)N7CCC(Nc8ncc(C(F)(F)F)c(-c9cnn(CC(F)(F)F)c9)n8)CC7)c6)CC5)CC4)ccc3C2=O)C(=O)N1` (stereo not drawn) [Example 12, 3-(1-oxo-5-(9-(3-((4-((4-(1-(2,2,2-trifluoroethyl)-1H-pyrazol-4-yl)-5-(trifluoromethyl)pyrimidin-2-yl)amino)-piperidin-1-yl)sulfonyl)-benzyl)-3,9-diazaspiro[5.5]undecan-3-yl)isoindolin-2-yl)piperidine-2,6-dione], for which the IC50 in test [1] was less than 100 nM. In addition, the DC50 in test [2] was less than 100 nM.

With `O=C1CCC(N2C(=O)c3cc(F)c(N4CCN(Cc5cccc(S(=O)(=O)N6CCC(Nc7ncc(C(F)(F)F)c(-c8cnn(CC(F)(F)F)c8)n7)CC6)c5)CC4)cc3C2=O)C(=O)N1` (stereo not drawn) [Example 1, 2-(2,6-dioxopiperidin-3-yl)-5-fluoro-6-(4-(3-((4-((4-(1-(2,2,2-trifluoroethyl)-1H-pyrazol-4-yl)-5-(trifluoromethyl)pyrimidin-2-yl)amino)piperidin-1-yl)sulfonyl)benzyl)piperazin-1-yl)isoindoline-1,3-dione], the IC50 in test [1] was 100 to 500 nM. Further, the DC50 in test [2] is 100 to 500 nM.

Consider `Cn1c(=O)n(C2CCC(=O)NC2=O)c2cccc(C3CCN(Cc4cccc(S(=O)(=O)N5CCC(Nc6ncc(C(F)(F)F)c(-c7cnn(CC(F)(F)F)c7)n6)CC5)c4)CC3)c21` (stereo not drawn) [Example 8, 3-(3-methyl-2-oxo-4-(1-(3-((4-((4-(1-(2,2,2-trifluoroethyl)-1H-pyrazol-4-yl)-5-(trifluoromethyl)pyrimidin-2-yl)amino)-piperidin-1-yl)sulfonyl)-benzyl)-piperidin-4-yl)-2,3-dihydro-1H-benzo[d]-imidazol-1-yl)piperidine-2,6-dione], for which the IC50 in test [1] was less than 100 nM. Also, in test [2], the DC50 was less than 100 nM.

Regarding `O=C1CCC(c2ccc(N3CC4CCC(C3)N4Cc3cccc(S(=O)(=O)N4CCC(Nc5ncc(C(F)(F)F)c(-c6cnn(CC(F)(F)F)c6)n5)CC4)c3)cc2)C(=O)N1` (stereo not drawn) [Example 18, 3-(4-(8-(3-((4-((4-(1-(2,2,2-trifluoro-ethyl)-1H-pyrazol-4-yl)-5-(trifluoro-methyl)pyrimidin-2-yl)amino)-piperidin-1-yl)sulfonyl)benzyl)-3,8-diazabicyclo-[3.2.1]octan-3-yl)phenyl)-piperidine-2,6-dione], the IC50 in test [1] is less than 100 nM. The DC50 in test [2] is less than 100 nM.

On to `Cn1nc(N2CCC(=O)NC2=O)c2ccc(C3CCN(Cc4cccc(S(=O)(=O)N5CCC(Nc6ncc(C(F)(F)F)c(-c7cnn(CC(F)(F)F)c7)n6)CC5)c4)CC3)c(F)c21` [Example 64, 1-(7-fluoro-1-methyl-6-(1-(3-((4-((4-(1-(2,2,2-trifluoroethyl)-1H-pyrazol-4-yl)-5-(trifluoromethyl)pyrimidin-2-yl)amino)-piperidin-1-yl)sulfonyl)-benzyl)-piperidin-4-yl)-1H-indazol-3-yl)dihydro-pyrimidine-2,4(1H,3H)-dione], for which, in test [1], the IC50 was less than 100 nM. The DC50 in test [2] is less than 100 nM.

For `O=C1CCC(c2ccc(N3CCN(Cc4cccc(S(=O)(=O)N5CCC(Nc6ncc(C(F)(F)F)c(-c7cnn(CC(F)(F)F)c7)n6)CC5)c4)CC3)cc2)C(=O)N1` (stereo not drawn) [Example 2, 3-(4-(4-(3-((4-((4-(1-(2,2,2-trifluoro-ethyl)-1H-pyrazol-4-yl)-5-(trifluoro-methyl)pyrimidin-2-yl)amino)piperidin-1-yl)sulfonyl)benzyl)piperazin-1-yl)-phenyl)piperidine-2,6-dione], the IC50 in test [1] is less than 100 nM. Also, the DC50 in test [2] was less than 100 nM.

For the compound `Cn1nc(N2CCC(=O)NC2=O)c2cc(F)c(N3CCN(Cc4cccc(S(=O)(=O)N5CC[C@H](Nc6ncc(C(F)(F)F)c(-c7cnn(CC(F)(F)F)c7)n6)[C@H](F)C5)c4)CC3)cc21` [Example 73, 1-(5-fluoro-6-(4-(3-(((3R,4S)-3-fluoro-4-((4-(1-(2,2,2-trifluoroethyl)-1H-pyrazol-4-yl)-5-(trifluoromethyl)pyrimidin-2-yl)amino)piperidin-1-yl)sulfonyl)-benzyl)piperazin-1-yl)-1-methyl-1H-indazol-3-yl)dihydropyrimidine-2,4(1H,3H)-dione], the IC50 in test [1] was less than 100 nM. In addition, the DC50 in test [2] was less than 100 nM.

Take `O=C1CCN(c2ccc(N3CCN(Cc4cccc(S(=O)(=O)N5CC[C@@H](Nc6ncc(C(F)(F)F)c(-c7cnn(CC(F)(F)F)c7)n6)[C@@H](F)C5)c4)CC3)cc2)C(=O)N1` (racemic) [Example 28, Rac-1-(4-(4-(3-(((3R,4S)-3-fluoro-4-((4-(1-(2,2,2-trifluoroethyl)-1H-pyrazol-4-yl)-5-(trifluoromethyl)-pyrimidin-2-yl)amino)piperidin-1-yl)sulfonyl)-benzyl)piperazin-1-yl)phenyl)dihydro-pyrimidine-2,4(1H,3H)-dione]: the IC50 in test [1] is 100 to 500 nM. The DC50 in test [2] is less than 100 nM.

In the case of `O=C1CCC(NCc2cccc(S(=O)(=O)N3CCC(Nc4ncc(C(F)(F)F)c(-c5cnn(CC(F)(F)F)c5)n4)CC3)c2)C(=O)N1` (stereo not drawn) [Example 68, 3-((3-((4-((4-(1-(2,2,2-trifluoroethyl)-1H-pyrazol-4-yl)-5-(trifluoromethyl)-pyrimidin-2-yl)amino)piperidin-1-yl)-sulfonyl)benzyl)amino)piperidine-2,6-dione], the IC50 in test [1] was less than 100 nM. Besides, the DC50 in test [2] was less than 100 nM.
